In test [1] the target is T1, TRK A, B & C kinase.
T1 construct: fused on or other part: Carna's Trk kinases are usually GST-tagged cytoplasmic domains
Kind of test: TRK A, B & C kinase assay (ADP-Glo / HTRF KinEASE-TK). The format is biochemical. The following applies: ADP-Glo or HTRF KinEASE-TK kit, isoform not specified, read-out: IC50 (nM) Enzymatic assay. The procedure: ADP-Glo assay kit was purchased from Promega. poly (Glu, Tyr), Magnesium sulfate, Bovine serum albumin (BSA) and dimethylsulfoxide(DMSO) were purchased from Sigma-Aldrich. Tris-HCl buffer was purchased from BD Gentest. HTRF KinEASE-TK kit was purchased from cisbio. TRK A, B & C kinase was purchased from Carna bioscience.
Kinase assay was performed for Chemical Compounds 1-61 using two methods using luminescent ADP-Glo assay kit (Promega) and HTRF KinEASE-TK assay kit (cisbio). The luminescent ADP-Glo assay kit (Promega) measures ADP formed from a kinase reaction. ADP converted into ATP, which is then converted into light by Ultra-Glo luciferase. The HTRF KinEASE-TK assay kit (cisbio) measures tyrosine kinase activities using one substrate and a universal detection system.
ADP-Glo Assay Kit (Promega)
The protein kinase assay was performed for Chemical Compounds 1-61 at […] concentrations are 0.4 ng/ul of TrKA, 0.5 ng/ul of TrKB and 3 ng/ul of TrKC, respectively), 5 μL of 1 ug/ul stock solution of poly(glu, Tyr), 5 μL of compounds or assay buffer, 5 μL of ATP (125 μM stock solution).
The assay was started by incubating the reaction mixture in a 96-well plate at 30° C. for 1 hr. After the incubation, the assay was terminated by the addition of 25 […] Detection Reagent was added, and the 96-well plate was shaken and then incubated for additional 30 min at ambient temperature. The 96-well reaction plate was then read on an Enspire plate reader. The IC50 values were derived through a curve fitting using SigmaPlot.
HTRF KinEASE-TK Assay Kit (Cisbio)
The HTRF KinEASE-TK assay was performed for Chemical Compounds 1-61 in 384-well low volume microplate (Greiner). The HTRF KinEASE-TK assay format involves the two steps. The first step is kinase reaction step. This kinase reaction step was performed at RT (room temperature) in final volume of 10 ul according to the following assay reaction recipe: 10 ul of kinase mixture (Kinase (2 ul)+ATP (2 ul)+Substrate (2 ul)+Compound (4 ul)). Kinase final concentrations were 0.3 ng/ul of TRKA, 0.1 ng/ul of TRKB, 0.03 ng/ul of TRKC, respectively. ATP final concentrations were 14.7 uM (TRKA), 4.77 uM (TRKB), 25.6 uM (TRKC) respectively. TK-substrate final concentration was 0.3 ng/ul. The mixtures exposed to Dose response concentration (DRC) compound from 0 to 100 nM for 40 min. During the kinase reaction step, the kinase reaction was started by the addition of ATP. Kinase phosphorylates the substrate.
The second is detection step. 10 ul of detection reagents (5 ul Sa-XL 665 in EDTA+5 ul TK Antibody-Eu in EDTA) was added to kinase mixture. This step was performed at room temperature for 1 hr. The detection reagent detects phosphorylated substrates.
Finally 384-well reaction plate was then read on FlexStation 3 machine. The fluorescence was measured at 620 nm (Cryptate) and 665 nm (XL665). A ratio is calculated ([…]/620)×10^4 for each well. The IC50 value was derived through a curve fitting using GraphPad Prism. Table 1 below includes the results of the assays.

The subject of test [2] is TF-1 cells. Kind of test: Cell proliferation assay (TF-1). To be noted: 10 ng/ml human β-NGF, 72 hours exposure, read-out: IC50 (nM) Cell-based assay (TF-1). The protocol: (§1) Doxorubicin was purchased from Sigma Aldrich (D1515). All compounds were diluted in DMSO (Sigma Aldrich, D2650). AlamarBlue® cell viability reagent was purchased from Thermo Scientific (88952). CellTiter 96® AQueous One Solution Cell proliferation assay was purchased from Promega. KM12-luc cells were obtained from JCRB (National Institute of Health Sciences, Tokyo, Japan). They were maintained in DMEM medium (GIB-11965-118) supplemented with 10% fetal bovine serum (Gibco, 16000-044) and MEM Non-Essential Amino Acids Solution (Thermo Scientific, 11140-050). TF-1 cells were obtained from ATCC. They were maintained in RPMI medium (GIB-A10491) supplemented with 10% fetal bovine serum (Gibco, 16000-044), GM-CSF (Thermo Scientific, 11140-050), and β-NGF (R&D systems). Trypsin/EDTA was purchased from Gibco (GIB-25300-054, 0.05%). 96-well plates were purchased from Corning Inc.
(§2) The proliferation assay was performed for Chemical Compounds 1-61 s in media supplemented with 10% FBS, using AlamarBlue® cell viability reagent or CellTiter 96® AQueous One Solution Cell proliferation assay kit. Cells were cultured in humidified 37° C. incubator with 5% CO2. To evaluate the antiproliferation activity of compounds, TF-1 cells were adjusted to GM-CSF free media (RPMI, 10% FBS, and 1% penicillin-streptomycin) for 16 hr and were seeded in 96-well plates at 30,000 cells/well with medium (RPMI, 10% FBS, 1% penicillin-streptomycin and 10 ng/ml human β-NGF). KM12-luc were seeded at 10,000 cells per well into 96-well plates. After overnight incubation, serial dilutions of compounds were added to triplicate wells, and cells were exposed for 72 hours. The final concentration of DMSO was adjusted to 0.5% in media. Quantitation of cell growth was assessed using two kinds of reagent. 20 ul of AlamarBlue® reagent in an amount equal to 10% of the culture volume was added to each well and were incubated in humidified 37° C. incubator with 5% CO2 for 2 hr. Otherwise, 20 ul of CellTiter 96® reagent was added to each well and were incubated in the same conditions as previously described. Data were plotted, and GI50 values were calculated using GraphPad software. Table 1 below includes the results of the assays.

Test [3] deals with KM12-luc cells. Kind of test: Cell proliferation assay (KM12). To be noted: 72 hours exposure, read-out: IC50 (nM) Cell-based assay (KM12). The protocol: as §1, §2

Broadly, the IC50 is the midpoint of a concentration-inhibition curve. Take `Cc1nnc(-c2cnn3ccc(N4CCCC4c4cc(F)ccc4F)nc23)o1` (centres unmarked) [Chemical Compound 1, 2-(5-(2-(2,5-difluorophenyl)pyrrolidin-1-yl)pyrazolo[1,5-a]pyrimidin-3-yl)-5-methyl-1,3,4-oxadiazole]: the results for the IC50 in test [1], in test [2] and in test [3] were less than 10 nM, less than 100 nM and less than 100 nM, respectively.

Consider `Cc1nnc(-c2cnn3ccc(N4CCCC4c4cc(F)ccc4F)nc23)s1` (centres unmarked) [Chemical Compound 2, 2-(5-(2-(2,5-difluorophenyl)pyrrolidin-1-yl)pyrazolo[1,5-a]pyrimidin-3-yl)-5-methyl-1,3,4-thiadiazole], for which the concentration for half-maximal inhibition (IC50) is less than 10 nM in test [1], less than 10 nM in test [2] and less than 100 nM in test [3].

With `CCc1nnc(-c2cnn3ccc(N4CCCC4c4cc(F)ccc4F)nc23)o1` (centres unmarked) [Chemical Compound 3, 2-(5-(2-(2,5-difluorophenyl)pyrrolidin-1-yl)pyrazolo[1,5-a]pyrimidin-3-yl)-5-ethyl-1,3,4-oxadiazole], the half-inhibitory concentration (IC50) in test [1] is less than 10 nM; in test [2] it was less than 10 nM; in test [3], less than 100 nM.

As to `CCc1nnc(-c2cnn3ccc(N4CCCC4c4cc(F)ccc4F)nc23)s1` (centres unmarked) [Chemical Compound 4, 2-(5-(2-(2,5-difluorophenyl)pyrrolidin-1-yl)pyrazolo[1,5-a]pyrimidin-3-yl)-5-ethyl-1,3,4-thiadiazole], the half-maximal inhibitory concentration (IC50) is less than 10 nM in test [1], less than 10 nM in test [2] and less than 100 nM in test [3].

Take `CC(C)c1nnc(-c2cnn3ccc(N4CCCC4c4cc(F)ccc4F)nc23)o1` (centres unmarked) [Chemical Compound 5, 2-(5-(2-(2,5-difluorophenyl)pyrrolidin-1-yl)pyrazolo[1,5-a]pyrimidin-3-yl)-5-isopropyl-1,3,4-oxadiazole]: the half-inhibitory concentration (IC50) in test [1], in test [2] and in test [3] was less than 10 nM in each case.

Take `CC(C)c1nnc(-c2cnn3ccc(N4CCCC4c4cc(F)ccc4F)nc23)s1` (centres unmarked) [Chemical Compound 6, 2-(5-(2-(2,5-difluorophenyl)pyrrolidin-1-yl)pyrazolo[1,5-a]pyrimidin-3-yl)-5-isopropyl-1,3,4-thiadiazole]: the IC50 in test [1], in test [2] and in test [3] was less than 10 nM in each case.

For `Fc1ccc(F)c(C2CCCN2c2ccn3ncc(-c4nnc(C5CC5)o4)c3n2)c1` (centres unmarked) [Chemical Compound 7, 2-cyclopropyl-5-(5-(2-(2,5-difluorophenyl)pyrrolidin-1-yl)pyrazolo[1,5-a]pyrimidin-3-yl)-1,3,4-oxadiazole], the IC50 in test [1] is less than 10 nM; in test [2] it was less than 10 nM; in test [3], less than 100 nM.

On to `Fc1ccc(F)c(C2CCCN2c2ccn3ncc(-c4nnc(C5CC5)s4)c3n2)c1` (centres unmarked) [Chemical Compound 8, 2-cyclopropyl-5-(5-(2-(2,5-difluorophenyl)pyrrolidin-1-yl)pyrazolo[1,5-a]pyrimidin-3-yl)-1,3,4-thiadiazole], for which the half-inhibitory concentration (IC50) was less than 10 nM in test [1], less than 10 nM in test [2] and less than 100 nM in test [3].

As for `CC(C)(C)c1nnc(-c2cnn3ccc(N4CCCC4c4cc(F)ccc4F)nc23)o1` (centres unmarked) [Chemical Compound 9, 2-tert-butyl-5-(5-(2-(2,5-difluorophenyl)pyrrolidin-1-yl)pyrazolo[1,5-a]pyrimidin-3-yl)-1,3,4-oxadiazole], the IC50 in test [1], in test [2] and in test [3] was less than 10 nM throughout.

For the molecule `CC(C)(C)c1nnc(-c2cnn3ccc(N4CCCC4c4cc(F)ccc4F)nc23)s1` (centres unmarked) [Chemical Compound 10, 2-tert-butyl-5-(5-(2-(2,5-difluorophenyl)pyrrolidin-1-yl)pyrazolo[1,5-a]pyrimidin-3-yl)-1,3,4-thiadiazole], the IC50 in test [1], in test [2] and in test [3] was less than 10 nM throughout.

Turning to `Cc1nnc(-c2cnn3ccc(N4CCCC4c4cncc(F)c4)nc23)s1` (centres unmarked) [Chemical Compound 11, 2-(5-(2-(5-fluoropyridin-3-yl)pyrrolidin-1-yl)pyrazolo[1,5-a]pyrimidin-3-yl)-5-methyl-1,3,4-thiadiazole], the IC50 in test [1] was less than 10 nM; in test [2], less than 100 nM; in test [3], less than 100 nM.

With `CCc1nnc(-c2cnn3ccc(N4CCCC4c4cncc(F)c4)nc23)s1` (centres unmarked) [Chemical Compound 12, 2-ethyl-5-(5-(2-(5-fluoropyridin-3-yl)pyrrolidin-1-yl)pyrazolo[1,5-a]pyrimidin-3-yl)-1,3,4-thiadiazole], the IC50 in test [1] was less than 10 nM; in test [2] it was less than 100 nM; in test [3] it was less than 100 nM.

For the molecule `CC1(O)CCN(C(=O)/C=C/c2cnn3ccc(N4CCC[C@@H]4c4cc(F)ccc4F)nc23)CC1` [Chemical Compound 58, (R,E)-3-(5-(2-(2,5-difluorophenyl)pyrrolidin-1-yl)pyrazolo[1,5-a]pyrimidin-3-yl)-1-(4-hydroxy-4-methylpiperidin-1-yl)prop-2-en-1-one], the concentration for half-maximal inhibition (IC50) in test [1] and in test [3] was less than 10 nM in each case.

On to `O=C(/C=C/c1cnn2ccc(N3CCC[C@@H]3c3cc(F)ccc3F)nc12)N1CC[C@H](O)C1` [Chemical Compound 60, (E)-3-(5-((R)-2-(2,5-difluorophenyl)pyrrolidin-1-yl)pyrazolo[1,5-a]pyrimidin-3-yl)-1-((S)-3-hydroxypyrrolidin-1-yl)prop-2-en-1-one], for which the IC50 in test [1] is less than 10 nM; in test [3], less than 100 nM.

For “(E)-3-(5-((R)-2-(2,5-difluorophenyl)pyrrolidin-1-yl)pyrazolo[1,5-a]pyrimidin-3-yl)-1-((R)-3-hydroxypyrrolidin-1-yl)prop-2-en-1-one [Chemical Compound 59]”, the IC50 is less than 10 nM in test [1] and less than 100 nM in test [3].

As for “(R,E)-3-(5-(2-(2,5-difluorophenyl)pyrrolidin-1-yl)pyrazolo[1,5-a]pyrimidin-3-yl)-1-(4-hydroxypiperidin-1-yl)prop-2-en-1-one [Chemical Compound 57]”, the results for the IC50 in test [1] and in test [3] were less than 10 nM and less than 100 nM, respectively.

The values above are taken from patent US9701681B2, “Fused ring heteroaryl compounds and their use as Trk inhibitors” (CMG Pharmaceutical Co., Ltd., priority 2014, dated 2017).
